Test system: IN double-mutant G140S-Q148H (SH)
Format: biochemical

Cc1nnc(C(=O)NC(C)(C)c2nc(C(=O)NCc3ccc(F)cc3)c(O)c(=O)n2C)o1 [RAL, Raltegravir]
increase in IC50 for 3′-P compared to WT (resistance factor): more than 62 fold

From paper PMC2866738 (Biochemistry, 2010)
